Measurements reported in PMC8387736 (Drug Design, Development and Therapy, 2021).
Read-outs that look alike come from different tables or passages of the source.

Assays:
[1] = rats
[2] = target: T1, CYP2B6 (Homo sapiens, UniProt P20813); experiment: biochemical
T1 sequence (P20813 1-491): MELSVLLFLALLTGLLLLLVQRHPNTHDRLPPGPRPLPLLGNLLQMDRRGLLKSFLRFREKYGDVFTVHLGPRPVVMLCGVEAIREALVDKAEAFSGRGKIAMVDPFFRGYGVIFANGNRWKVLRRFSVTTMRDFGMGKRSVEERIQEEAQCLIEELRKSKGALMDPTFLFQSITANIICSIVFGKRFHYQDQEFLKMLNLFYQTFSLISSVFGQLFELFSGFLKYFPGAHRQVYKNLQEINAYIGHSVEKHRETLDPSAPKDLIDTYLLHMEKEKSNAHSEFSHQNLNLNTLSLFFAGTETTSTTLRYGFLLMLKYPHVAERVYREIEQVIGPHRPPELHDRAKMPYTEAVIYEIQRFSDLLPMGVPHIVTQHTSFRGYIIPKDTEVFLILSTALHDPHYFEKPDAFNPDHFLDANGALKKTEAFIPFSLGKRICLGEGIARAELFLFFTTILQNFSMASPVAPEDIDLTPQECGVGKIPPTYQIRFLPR

[3] = target: T2, CYP1A2 (Homo sapiens, UniProt P05177); details: HLMs
T2 sequence (P05177 1-516): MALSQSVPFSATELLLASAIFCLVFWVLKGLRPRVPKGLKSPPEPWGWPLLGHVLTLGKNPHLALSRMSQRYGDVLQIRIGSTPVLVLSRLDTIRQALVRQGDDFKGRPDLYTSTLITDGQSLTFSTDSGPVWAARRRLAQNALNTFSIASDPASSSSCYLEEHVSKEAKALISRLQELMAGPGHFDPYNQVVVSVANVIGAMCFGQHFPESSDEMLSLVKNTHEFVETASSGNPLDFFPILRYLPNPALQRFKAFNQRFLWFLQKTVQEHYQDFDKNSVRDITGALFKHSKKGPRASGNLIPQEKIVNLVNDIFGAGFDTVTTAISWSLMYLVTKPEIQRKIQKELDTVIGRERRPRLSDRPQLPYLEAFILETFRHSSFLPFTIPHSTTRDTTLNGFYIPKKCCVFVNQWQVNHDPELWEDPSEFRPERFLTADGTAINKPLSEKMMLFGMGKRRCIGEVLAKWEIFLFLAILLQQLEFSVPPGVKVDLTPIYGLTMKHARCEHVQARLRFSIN

[4] = target: T3, cyp2c11 (Rattus norvegicus, UniProt P08683); experiment: Inhibition of tolbutamide metabolism by avitinib in rat liver microsomes
T3 sequence (P08683 1-500): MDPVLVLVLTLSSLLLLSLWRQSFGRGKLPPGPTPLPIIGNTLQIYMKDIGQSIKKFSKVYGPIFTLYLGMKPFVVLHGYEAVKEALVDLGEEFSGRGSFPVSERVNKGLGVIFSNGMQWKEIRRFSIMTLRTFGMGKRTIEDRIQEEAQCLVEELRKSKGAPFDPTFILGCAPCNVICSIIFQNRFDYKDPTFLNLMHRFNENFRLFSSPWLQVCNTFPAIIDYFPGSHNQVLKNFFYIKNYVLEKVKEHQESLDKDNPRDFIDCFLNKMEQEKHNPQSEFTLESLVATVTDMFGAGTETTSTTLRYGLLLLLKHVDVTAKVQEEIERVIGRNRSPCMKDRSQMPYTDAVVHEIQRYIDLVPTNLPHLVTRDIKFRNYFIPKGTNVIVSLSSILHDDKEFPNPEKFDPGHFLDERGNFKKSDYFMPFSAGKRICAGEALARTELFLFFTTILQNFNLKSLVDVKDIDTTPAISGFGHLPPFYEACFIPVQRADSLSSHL

[5] = target: T4, cyp2b1 (Rattus norvegicus, UniProt P00176); experiment: Inhibition of bupropion metabolism by avitinib in rat liver microsomes
T4 sequence (P00176 1-491): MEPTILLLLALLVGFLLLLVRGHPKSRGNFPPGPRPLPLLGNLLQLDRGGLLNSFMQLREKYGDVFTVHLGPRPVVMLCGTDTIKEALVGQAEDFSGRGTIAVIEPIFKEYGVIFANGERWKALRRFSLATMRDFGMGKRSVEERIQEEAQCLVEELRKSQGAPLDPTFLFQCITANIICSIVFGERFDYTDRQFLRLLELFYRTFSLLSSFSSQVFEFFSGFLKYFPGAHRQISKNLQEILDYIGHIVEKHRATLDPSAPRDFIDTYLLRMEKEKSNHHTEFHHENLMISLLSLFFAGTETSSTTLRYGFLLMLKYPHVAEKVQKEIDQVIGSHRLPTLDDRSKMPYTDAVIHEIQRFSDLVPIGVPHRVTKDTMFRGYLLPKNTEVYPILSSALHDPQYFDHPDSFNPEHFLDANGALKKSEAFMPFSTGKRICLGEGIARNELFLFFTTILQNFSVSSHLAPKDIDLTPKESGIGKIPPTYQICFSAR

[6] = tested on: CYP3As; experiment: Inhibition of midazolam metabolism by avitinib in human liver microsomes; format: in vitro ADME
[7] = target: T5, CYP2D6 (Homo sapiens, UniProt P10635); experiment: biochemical
T5 sequence (P10635 whole entry): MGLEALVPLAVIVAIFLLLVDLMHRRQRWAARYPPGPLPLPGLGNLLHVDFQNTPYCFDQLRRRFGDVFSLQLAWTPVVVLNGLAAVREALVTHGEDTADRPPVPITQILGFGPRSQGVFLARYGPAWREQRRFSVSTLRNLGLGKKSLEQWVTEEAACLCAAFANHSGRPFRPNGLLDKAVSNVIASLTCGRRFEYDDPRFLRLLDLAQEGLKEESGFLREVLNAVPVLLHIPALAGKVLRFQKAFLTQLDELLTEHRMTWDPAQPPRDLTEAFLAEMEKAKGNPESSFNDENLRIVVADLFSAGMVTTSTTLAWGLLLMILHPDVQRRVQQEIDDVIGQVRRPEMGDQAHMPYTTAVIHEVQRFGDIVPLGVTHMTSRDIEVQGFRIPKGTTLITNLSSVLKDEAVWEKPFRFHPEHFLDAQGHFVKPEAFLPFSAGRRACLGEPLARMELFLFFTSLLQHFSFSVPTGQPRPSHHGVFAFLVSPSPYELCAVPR

[8] = target: T6, CYP2C9 (Homo sapiens, UniProt P11712); details: HLMs
T6 sequence (P11712 whole entry): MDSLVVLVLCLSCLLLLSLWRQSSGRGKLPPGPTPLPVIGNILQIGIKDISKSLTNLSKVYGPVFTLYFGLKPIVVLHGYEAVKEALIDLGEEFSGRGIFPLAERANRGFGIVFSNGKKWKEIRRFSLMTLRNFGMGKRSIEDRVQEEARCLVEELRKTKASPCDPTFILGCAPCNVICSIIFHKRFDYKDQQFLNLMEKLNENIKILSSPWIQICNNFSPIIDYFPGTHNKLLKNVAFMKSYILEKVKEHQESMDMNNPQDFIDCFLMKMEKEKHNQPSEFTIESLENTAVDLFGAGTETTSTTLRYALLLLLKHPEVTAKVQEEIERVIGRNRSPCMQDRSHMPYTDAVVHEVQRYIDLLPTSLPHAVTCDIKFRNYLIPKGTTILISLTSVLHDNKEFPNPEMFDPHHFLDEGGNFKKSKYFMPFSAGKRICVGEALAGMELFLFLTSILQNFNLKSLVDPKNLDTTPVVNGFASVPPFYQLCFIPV

[9] = target: T1, CYP2B6; details: HLMs
[10] = target: T7, cyp1a2 (Rattus norvegicus, UniProt P04799); experiment: Inhibition of phenacetin metabolism by avitinib in rat liver microsomes
T7 sequence (P04799 1-513): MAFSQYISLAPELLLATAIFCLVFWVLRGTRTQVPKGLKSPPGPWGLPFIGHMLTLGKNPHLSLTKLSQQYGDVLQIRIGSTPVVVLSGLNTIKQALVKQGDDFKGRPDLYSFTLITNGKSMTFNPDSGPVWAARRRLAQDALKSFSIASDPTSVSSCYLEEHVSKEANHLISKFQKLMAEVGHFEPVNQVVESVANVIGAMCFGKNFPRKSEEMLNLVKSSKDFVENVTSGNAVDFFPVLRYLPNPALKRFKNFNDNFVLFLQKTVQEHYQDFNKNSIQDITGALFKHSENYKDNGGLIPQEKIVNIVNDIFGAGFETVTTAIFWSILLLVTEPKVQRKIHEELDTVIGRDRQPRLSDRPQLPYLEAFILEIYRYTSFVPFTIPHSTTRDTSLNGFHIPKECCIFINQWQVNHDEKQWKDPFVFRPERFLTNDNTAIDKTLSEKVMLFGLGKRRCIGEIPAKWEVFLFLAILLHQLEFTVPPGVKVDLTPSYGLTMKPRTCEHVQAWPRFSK

[11] = target: cyp2e1 (Rattus norvegicus, UniProt P05182); experiment: Inhibition of chlorzoxazone metabolism by avitinib in rat liver microsomes
Sequence of cyp2e1 (P05182 whole entry): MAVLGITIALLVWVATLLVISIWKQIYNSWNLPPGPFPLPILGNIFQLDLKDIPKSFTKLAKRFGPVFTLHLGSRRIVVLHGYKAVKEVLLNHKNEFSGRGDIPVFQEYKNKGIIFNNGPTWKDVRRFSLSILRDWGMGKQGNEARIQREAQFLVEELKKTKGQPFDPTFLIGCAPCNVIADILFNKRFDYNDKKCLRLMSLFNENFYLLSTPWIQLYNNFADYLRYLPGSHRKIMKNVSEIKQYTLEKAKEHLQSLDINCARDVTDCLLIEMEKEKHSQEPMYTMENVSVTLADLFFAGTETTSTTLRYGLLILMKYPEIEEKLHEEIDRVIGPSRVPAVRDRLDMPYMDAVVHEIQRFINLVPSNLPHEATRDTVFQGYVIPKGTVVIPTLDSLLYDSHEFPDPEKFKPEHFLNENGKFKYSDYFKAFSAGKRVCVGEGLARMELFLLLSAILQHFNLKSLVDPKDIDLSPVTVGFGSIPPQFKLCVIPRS

[12] = target: T6, CYP2C9; experiment: biochemical
[13] = target: T8, cyp2d1 (Rattus norvegicus, UniProt P10633); experiment: Inhibition of dextromethorphan metabolism by avitinib in rat liver microsomes
T8 sequence (P10633 1-504): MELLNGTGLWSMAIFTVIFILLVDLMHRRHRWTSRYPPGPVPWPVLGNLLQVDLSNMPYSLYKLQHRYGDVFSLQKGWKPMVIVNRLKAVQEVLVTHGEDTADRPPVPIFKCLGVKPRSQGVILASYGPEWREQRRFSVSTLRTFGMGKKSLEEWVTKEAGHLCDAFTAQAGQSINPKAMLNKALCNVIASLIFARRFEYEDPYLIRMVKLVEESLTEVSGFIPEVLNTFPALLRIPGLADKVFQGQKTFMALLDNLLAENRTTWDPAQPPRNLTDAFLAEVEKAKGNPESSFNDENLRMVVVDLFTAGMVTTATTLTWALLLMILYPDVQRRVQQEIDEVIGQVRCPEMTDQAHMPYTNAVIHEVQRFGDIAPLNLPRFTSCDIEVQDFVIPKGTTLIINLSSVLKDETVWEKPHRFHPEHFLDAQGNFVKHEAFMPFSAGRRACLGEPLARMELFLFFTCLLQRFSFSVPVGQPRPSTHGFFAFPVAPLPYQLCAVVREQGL

[14] = tested on: cyp3as; experiment: Inhibition of midazolam metabolism by avitinib in rat liver microsomes
[15] = target: T2, CYP1A2; experiment: biochemical
[16] = target: T9, CYP2E1 (Homo sapiens, UniProt P05181); details: HLMs
T9 sequence (P05181 whole entry): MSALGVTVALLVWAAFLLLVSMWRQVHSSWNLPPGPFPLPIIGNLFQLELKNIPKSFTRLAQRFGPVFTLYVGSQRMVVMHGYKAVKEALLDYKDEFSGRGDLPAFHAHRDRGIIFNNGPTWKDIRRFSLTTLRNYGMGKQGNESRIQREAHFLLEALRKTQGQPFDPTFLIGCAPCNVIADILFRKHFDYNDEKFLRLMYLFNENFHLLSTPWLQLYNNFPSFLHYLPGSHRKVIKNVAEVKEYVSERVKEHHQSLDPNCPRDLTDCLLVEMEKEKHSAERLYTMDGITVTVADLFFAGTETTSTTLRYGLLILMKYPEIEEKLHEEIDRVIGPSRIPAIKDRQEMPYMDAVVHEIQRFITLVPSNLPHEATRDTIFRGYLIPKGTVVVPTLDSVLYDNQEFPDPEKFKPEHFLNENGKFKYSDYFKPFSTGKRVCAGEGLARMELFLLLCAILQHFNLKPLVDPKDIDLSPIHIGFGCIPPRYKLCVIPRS

[17] = target: T5, CYP2D6; details: HLMs
[18] = target: T9, CYP2E1; experiment: biochemical
[19] = avitinib 30 mg/kg multiple-doses or single-dose vs control
[20] = multiple-doses 30 mg/kg avitinib (7 days)

In the case of `CCOc1ccc(NC(C)=O)cc1` [Phenacetin], the “change in t1/2 values after avitinib (in words)” value [1, 19] is reported as “no significant change”, the “reduction of CLz/F compared with control group” value (“reduction of CLz/F” for short) [1, 20] is reported as 63.17% and the “reduction of Vz/F compared with control group” value (“reduction of Vz/F” below) [1, 20] is reported as 63.09%. For the same molecule, the “reduction of CLz/F” value ([1]; single-dose 30 mg/kg avitinib) was 39.52%.

With `Cc1ncc2n1-c1ccc(Cl)cc1C(c1ccccc1F)=NC2` [Midazolam] the “difference in Cmax after avitinib (in words)” value [1, 19] was “No significant difference”.

For `C=CC(=O)Nc1cccc(Oc2nc(Nc3ccc(N4CCN(C)CC4)c(F)c3)nc3[nH]ccc23)c1` [avitinib, Avitinib], the IC50 [2] was 22.6 µM, the “inhibitory effect on CYP1A2 (grade in words)” value [3] was “weak” and the IC50 [4] was 42.2 µM. For the same molecule, the “inhibitory effect on cyp2c11 (grade in words)” value ([4]; RLMs) was “weak”, the IC50 [5] was 6.39 µM and the “inhibitory effect on cyp2b1 (grade in words)” value ([5]; RLMs) was “moderate”. The “inhibitory effect on CYP3As (grade in words)” value ([6]; HLMs) was “weak”, the IC50 at 30 min ([6]; human, human liver microsomes, probe midazolam (5 μM)) was 59.6 µM and the IC50 [7] was 56.6 µM. The “inhibitory effect on CYP2C9 (grade in words)” value [8] was “moderate”, the “inhibitory effect on CYP2B6 (grade in words)” value [9] was “weak” and the IC50 [10] was 15.8 µM. The “inhibitory effect on cyp1a2 (grade in words)” value ([10]; RLMs) was “weak”, the IC50 [11] was 23.2 µM and the “inhibitory effect on cyp2e1 (grade in words)” value ([11]; RLMs) was “weak”. For the same molecule, the IC50 [12] was 6.91 µM, the IC50 [13] was 44.4 µM and the “inhibitory effect on cyp2d1 (grade in words)” value ([13]; RLMs) was “weak”. For the same molecule, the “inhibitory effect on cyp3as (grade in words)” value ([14]; RLMs) was “weak”, the IC50 at 30 min ([14]; male, Sprague-Dawley, rat, rat liver microsomes, probe midazolam (5 μM)) was 27.6 µM and the IC50 [15] was 48.4 µM. For the same molecule, the “inhibitory effect on CYP2E1 (grade in words)” value [16] was “weak”, the “inhibitory effect on CYP2D6 (grade in words)” value [17] was “weak” and the IC50 [18] was 57.1 µM.

For `COc1ccc2c(c1)[C@]13CCCC[C@@H]1[C@H](C2)N(C)CC3` [Dextromethorphan], the “change in Tmax values after avitinib (in words)” value [1, 19] was “No significant changes”, the “reduction of CLz/F” value [1, 20] was 82.22% and the “reduction of Vz/F” value [1, 20] was 73.53%. The “reduction of CLz/F” value ([1]; single-dose 30 mg/kg avitinib) was 67.78% and the “reduction of Vz/F” value ([1]; single-dose 30 mg/kg avitinib) was 69.7%.

With `CC(NC(C)(C)C)C(=O)c1cccc(Cl)c1` (stereo not drawn) [Bupropion] the “reduction of CLz/F” value [1, 20] was 57.54%, the “reduction of Vz/F” value [1, 20] was 62.74% and the “reduction of CLz/F” value ([1]; single-dose 30 mg/kg avitinib) was 53.96%. For the same molecule, the “reduction of Vz/F” value ([1]; single-dose 30 mg/kg avitinib) was 64.59%.

In the case of `CCCCNC(=O)NS(=O)(=O)c1ccc(C)cc1` [Tolbutamide], the “difference in Cmax after avitinib (in words)” value [1, 19] is reported as “No significant difference”.
